Test results as given in publication PMC5297809, “Design, Synthesis and Antifungal Activity Evaluation of New Thiazolin-4-ones as Potential Lanosterol 14α-Demethylase Inhibitors” (International Journal of Molecular Sciences, 2017).
In brackets after ≈: the same amount, converted by molar mass.

Key:
[1] = test system: Candida albicans ATCC 10231; assay: cup-plate agar diffusion method, inhibition zone diameters; type: cell-based; conditions: ATCC10231, C. albicans ATCC 10231, 1 mg/mL in DMSO, 20 µg/well, mean of three ± SD, read-out: inhibition zone diameters
[2] = test system: Candida albicans ATCC 10231; assay: broth microdilution MIC/MFC; type: cell-based; conditions: for MFC: ATCC10231, C. albicans ATCC 10231, read-out: MFC; for MIC: ATCC10231, C. albicans ATCC 10231, read-out: MIC
[3] = test system: Candida albicans ATCC 18804; assay: broth microdilution MIC/MFC; type: cell-based; conditions: for MFC: ATCC18804, C. albicans ATCC 18804, read-out: MFC; for MIC: ATCC18804, C. albicans ATCC 18804, read-out: MIC
Candida krusei ATCC 6258 = assay: broth microdilution MIC/MFC; type: cell-based; conditions: Pichia kudriavzevii, ATCC6258, C. krusei ATCC 6258; for MFC: read-out: MFC; for MIC: read-out: MIC
[4] = test system: Candida parapsilosis ATCC 22019; assay: broth microdilution MIC/MFC; type: cell-based; conditions: Lodderomyces parapsilosis, ATCC22019, C. parapsilosis ATCC 22019; for MFC: read-out: MFC; for MIC: read-out: MIC
four strains of Candida = assay: broth microdilution MIC/MFC, summary over the four strains; type: cell-based; conditions: for fold more active than fluconazole: anti-Candida activity; for MFC / MIC: summary over two C. albicans, one C. krusei and one C. parapsilosis strain
[5] = lipophilicity by RP-TLC with PCA; type: physicochemical; set-up: key to P1 / P2: PCA scores of compounds computed from Rf data; conditions: for RM0: RP-TLC C18, water-i-propanol 45-65%, intercept, RM extrapolated to 0% organic modifier (lipophilicity); for b: RP-TLC regression slope (specific hydrophobic surface area); for P1: score of first principal component of Rf data, low P1 = highly lipophilic; for P2: score of second principal component of Rf data
Method: The lipophilic character of twenty thiazolin-4-one derivatives was assessed with the help of the principal component analysis (PCA) based on the reversed-phase thin-layer chromatography (RP-TLC) data.
The chromatographic behavior of the test compounds was studied on C18 silicagel bonded 60 RP-180F254S TLC (20 × 20 cm) plates, purchased from Merck (Darmstadt, Germany). The test compounds’ solutions (1 mg/mL) were prepared by dissolving the samples in DMSO (Merck, Darmstadt, Germany). The plates were manually spotted with 3 µL aliquots of each solution at 10 mm from the base and 5 mm from the edge of the plate, leaving a 10 mm distance between successive spots, and developed by the ascending technique, without preconditioning. Chromatography was performed in a normal developing chamber at room temperature (~24 °C), the developing distance being of 9 cm. The solvent system used as mobile phase consisted of a water-i-propanol mixture, with a varying content of organic modifier (i-propanol—concentration ranged between 45% and 65% (v/v), with 5% vol. increments). Before the development, the chamber was saturated with the mobile phase for 15 min. After being developed, the dried plates were visually inspected under the UV light (λ = 254 nm), each spot was clearly marked and its distance was manually measured in order to calculate the Rf values. The spots of the compounds 3f, 10 and 11 were not visible in UV light, thus their Rf values could not be calculated, therefore they were excluded from this assay.
Based on the Rf values, one of the most common lipophilic estimator, meaning the isocratic retention factor RM was calculated using the Bate-Smith and Westall equations [40].
RP-TLC provides retention data in the form of Rf and the corresponding RM values (Equation (2)) that can be used to derive chromatographic descriptors for estimating lipophilicity: RM0, b and PCA. The most popular lipophilicity descriptor estimated by this method is RM and it is derived from the retention factor (Rf) according to the following formula: RM = log[(1/Rf) − 1] (2) where Rf is calculated on the basis of migration distance of a compound and the solvent front.
As RM value (related to the molecular lipophilicity) depends linearly on the concentration of the organic modifier in the mobile phase, the value is extrapolated to pure water as mobile phase. In order to increase the accuracy of the lipophilicity determination, the RM values extrapolated to zero organic modifier concentration (RM0) have been calculated from the linear correlation between the RM values and the concentration of the organic component of the mobile phase: RM = RM0 + bc (3) where RM0 is the lipophilicity estimation parameter, RM is the retention of the solute, b is the slope, and c is the concentration of the mobile phase organic modifier (i-propanol).
The intercept (RM0) in Equation (3) represents the extrapolated RM values at 0% organic modifier.
PCA was performed on the obtained retention parameters with the help of XL-STAT extension. […] PCA gave the coordinates (scores) of the studied compounds and also the loadings of the variables (solvents) on the principal components.

SMILES	zone of inhibition at 1000 µg/mL [1] [mm]	MFC [2] [µg/mL]	MIC [2] [µg/mL]	MFC [3] [µg/mL]	MIC [3] [µg/mL]	MFC (Candida krusei ATCC 6258) [µg/mL]	MIC (Candida krusei ATCC 6258) [µg/mL]	MFC [4] [µg/mL]	MIC [4] [µg/mL]	fold more active than fluconazole (four strains of Candida)	MFC (four strains of Candida) [µg/mL]	MIC (four strains of Candida) [µg/mL]	RM0 [5]	b [5]	P1 [5]	P2 [5]	melting point [°C]
O=C1N=C(Nc2cccc3ccccc23)SC1=Cc1ccc(Cl)cc1Cl [Compound 9b, 5-(2,4-Dichlorobenzylidene)-2-(naphthalen-1-ylamino)thiazol-4(5H)-one]	18 ± 0.2	0.03 (≈ 0.0751 µM)	0.015 (≈ 0.0376 µM)	0.03 (≈ 0.0751 µM)	0.015 (≈ 0.0376 µM)	0.015 (≈ 0.0376 µM)	0.015 (≈ 0.0376 µM)	0.015 (≈ 0.0376 µM)	0.015 (≈ 0.0376 µM)	over 500 fold	0.015 (≈ 0.0376 µM)	0.015 (≈ 0.0376 µM)	2.9283	−4.3675	−2.876	0.232	185
CNC1=NC(=O)CS1 [Compound 10, 2-(methylamino)thiazol-4(5H)-one]	22 ± 1	0.03 (≈ 0.23 µM)	0.015 (≈ 0.115 µM)	0.03 (≈ 0.23 µM)	0.015 (≈ 0.115 µM)	0.015 (≈ 0.115 µM)	0.015 (≈ 0.115 µM)	0.015 (≈ 0.115 µM)	0.015 (≈ 0.115 µM)	over 500 fold	0.015 (≈ 0.115 µM)	0.015 (≈ 0.115 µM)					
C=CCNC1=NC(=O)C(=Cc2ccc([N+](=O)[O-])cc2)S1 [Compound 3c, 2-(Allylamino)-5-(4-nitrobenzylidene)thiazol-4(5H)-one]	18 ± 1	31.2 (≈ 108 µM)	31.2 (≈ 108 µM)	31.2 (≈ 108 µM)	31.2 (≈ 108 µM)	15.6 (≈ 54 µM)	15.6 (≈ 54 µM)	31.2 (≈ 108 µM)	15.6 (≈ 54 µM)				1.7553	−3.314	1.049	−0.259	265
C=CCNC1=NC(=O)C(=Cc2cccc(Cl)c2)S1 [Compound 3a, 2-(Allylamino)-5-(3-chlorobenzylidene)thiazol-4(5H)-one]	20 ± 0.5	31.2 (≈ 112 µM)	31.2 (≈ 112 µM)	31.2 (≈ 112 µM)	15.6 (≈ 56 µM)	31.2 (≈ 112 µM)	15.6 (≈ 56 µM)	15.6 (≈ 56 µM)	7.81 (≈ 28 µM)				2.0801	−3.6152	−0.090	−0.268	198
C=CCNC1=NC(=O)CS1 [Compound 2, 2-(allylamino)thiazol-4(5H)-one]	20 ± 0.2	0.24 (≈ 1.54 µM)	0.12 (≈ 0.768 µM)	0.48 (≈ 3.07 µM)	0.24 (≈ 1.54 µM)	0.48 (≈ 3.07 µM)	0.24 (≈ 1.54 µM)	0.24 (≈ 1.54 µM)	0.12 (≈ 0.768 µM)				0.0414	−1.1059	4.335	0.879	90 to 91
O=C1N=C(Nc2ccccc2)SC1=Cc1cccc(Cl)c1 [Compound 6a, 5-(3-Chlorobenzylidene)-2-(phenylamino)thiazol-4(5H)-one]	20 ± 0.5	31.2 (≈ 99.3 µM)	15.6 (≈ 49.6 µM)	15.6 (≈ 49.6 µM)	7.81 (≈ 24.8 µM)	3.9 (≈ 12.4 µM)	7.81 (≈ 24.8 µM)	3.9 (≈ 12.4 µM)	3.9 (≈ 12.4 µM)				2.1738	−3.9258	0.485	−0.534	278 to 280
